{"source": "patent US20090142416A1", "about": "“Methods for the treatment of HIV and other viruses” (priority 2003, published 2009)", "key": {"[1]": {"system": "murine leukemia virus (MULV)", "settings": "for survival rate at 21 days / post-treatment CD4/CD8 ratio: 72 feet; for survival rate at 21 days: 2 hours daily; for survival rate at 21 days / mice that died during the treatment period: 12 mice per group; for post-treatment CD4/CD8 ratio / post-treatment CD4 count (FACS): 2 hours, versus post-treatment control; for post-treatment CD4/CD8 ratio: six days a week, three weeks; for hypocellular medullary sinuses of lymph nodes: H&E histology after three-week treatment; for lymph node architecture: after 21 days of treatment; for spleen size / lymph node size: after three-week treatment; for spleen size: N2 and air versus control and oxygen; for lymph node size: area = length times width of cut node; for post-treatment CD4 count (FACS): orbital blood, 72 feet of seawater, six days a week for three weeks; for physical condition / grooming: versus control and oxygen groups; for mice that died during the treatment period: days 6 and 14; for overall effect relative to control conditions: 72 ft for 2 hours, 6 days per week", "protocol": "FIG. 5A represents the cross section of an actual lymph node removed from a mouse that took part in a study of the present method. […] As a result of the observations on divers in Puerto Rico, it was decided to first test this concept in murine leukemia virus-MULV mice exposed to increased pressures of nitrogen at a depth of 72 feet for 2 hours 6 days per week for 3 weeks. […] The murine model, AKR-J strain of mice which are viremic from birth, were used to test the hypotheses. The animal model was chosen because of its striking similarities to human AIDS. […] The mice were separated at random into four groups of 12 mice in each group. Group 1 was control. Group 2 was exposed to air at sea level pressure. Group 3 was exposed to N2 and Group 4 to O2 under the following conditions. The mice were placed in a small (5.88 cubic feet), temperature controlled hyperbaric chamber and compressed with Air, N2+6.5% O2 or 100% O2. Groups were taken separately to a pressure of 72 feet of seawater. The animals reached maximum treatment pressure in 6-7 minutes and remained at this pressure for 2 hours. They were then returned to normal barometric pressure at a rate of one foot per minute (72 minutes). This process was performed each day for six days a week for three weeks. The control group of animals (Group 1) was exposed to normal surface conditions for the same period of time.\nCytological and histological measurements. Pre- and post-flow cytometry (FACS) analysis was performed on samples of orbital blood from 10 animals in each group labeled with anti-mouse CD4/CD8 fluorescence markers. Animals were anesthetized using methoxyflurane and blood was collected with a heparinized Pasteur pipette. Lymphocytes were stained with anti CD4-PE and anti CD8-FITC (Pharmingen) for 15 minutes. Erythrocytes were hemolyzed in lysis solution (Becton Dickinson) for 10 minutes, washed with PBS/azide solution, centrifuged and the supernatant was discarded. The pellet was fixed with 1% formalin in PBS, and stored at 4° C. until cytometry (Becton Dickinson FACS Scan; San Jose, Calif.). At the end of the three-week treatment period, blood samples were obtained and the mice were sacrificed. The lymph nodes, spleen, thymus, liver and brain tissue were collected immediately placed in 10% formalin. Following fixation and routine paraffin processing, 4 μm sections of lymph nodes were obtained after cutting randomly selected nodes through the center parallel to the long axis of the node. The slides were stained with hematoxylin and eosin (H&E) and reviewed by a pathologist that was blinded to knowledge of animal treatment groups. The presence of secondary follicles and paracortical expansion were quantitated for each animal as a percentage of lymph nodes. As medullary sinuses were not present in every lymph node profile, the presence of medullary sinus hypocellularity was quantitated as a percentage of lymph nodes which contained sinuses. In addition the approximate surface area of the cut node was computed from the product of the length and width in its maximum dimensions. The remaining tissues were examined qualitatively for pathological changes.\nFIG. 6 is bar chart showing the average size of lymph nodes taken from the mice of different groups in the study discussed above. The lymph nodes were taken from the cervical, thoracic, and abdominal regions and fixed in 10% formalin. The nodes were then sectioned through the center of the long axis, and area was computed as the product of length times width."}, "[2]": {"settings": "cited from earlier work"}, "[3]": {"settings": "listed as Mixtures with enriched nitrogen"}}, "note": "Entries after “also recorded” stand apart in the source; their conditions may differ. Read-outs that look alike come from different tables or passages of the source.", "data": [{"smiles": "N#N", "note": "[N2, nitrogen]", "values": [{"measurement": "survival rate at 21 days", "setting": "[1]", "result": 100, "unit": "%"}, {"measurement": "post-treatment CD4/CD8 ratio", "setting": "[1]", "result": "significantly higher"}, {"measurement": "post-treatment CD4/CD8 ratio", "setting": "[1]; [3]", "result": "increased"}, {"measurement": "hypocellular medullary sinuses of lymph nodes", "setting": "[1]", "result": "significantly more hypocellular sinuses were present in the control group and the O2 group than in the N2 and Air groups; also recorded: significant differences in sinus cellularity"}, {"measurement": "lymph node architecture", "setting": "[1]", "result": "improved lymph node architecture"}, {"measurement": "lymph node architecture", "setting": "[1]; [3]", "result": "preserved"}, {"measurement": "spleen size", "setting": "[1]", "result": "smaller by about one third"}, {"measurement": "lymph node size", "setting": "[1]", "result": "smaller"}, {"measurement": "lymph node size", "setting": "[1]; listed as hyperbaric N2", "result": "significantly attenuated the lymphadenopathy"}, {"measurement": "lymph node size", "setting": "[1]; listed as nitrogen", "result": "significant reduction"}, {"measurement": "number of nodes with paracortical expansion", "setting": "[1]; lymph node histology", "result": "reduction"}, {"measurement": "number of nodes with secondary follicles", "setting": "[1]; lymph node histology", "result": "reduction"}, {"measurement": "number of sinuses with histiocytes", "setting": "[1]; lymph node histology", "result": "increase"}, {"measurement": "post-treatment CD4 count (FACS)", "setting": "[1]", "result": "increased and were significantly higher than post-treatment CD4 count in control animals"}, {"measurement": "post-treatment CD4 count (FACS)", "setting": "[1]; listed as hyperbaric N2", "result": "improved CD4 counts"}, {"measurement": "physical condition / grooming", "setting": "[1]", "result": "better grooming"}, {"measurement": "physical condition / grooming", "setting": "[1]; [3]", "result": "improved"}, {"measurement": "physical condition / grooming", "setting": "[1]; listed as nitrogen", "result": "appeared physically more healthy; also recorded: improved physical condition"}]}, {"smiles": "O=O", "note": "[O2, oxygen, reference compound]", "values": [{"measurement": "mice that died during the treatment period", "setting": "[1]", "result": "Two"}, {"measurement": "mice that died during the treatment period", "setting": "[1]; listed as oxygen", "result": "two"}, {"measurement": "survival rate at 21 days", "setting": "[1]", "result": 83, "unit": "%"}, {"measurement": "post-treatment CD4/CD8 ratio", "setting": "[1]", "result": "significantly lower"}, {"measurement": "post-treatment CD4/CD8 ratio", "setting": "[1]; listed as hyperbaric oxygen", "result": "significantly decreased"}, {"measurement": "post-treatment CD4/CD8 ratio", "setting": "[1]; listed as oxygen", "result": "significantly lower"}, {"measurement": "overall effect relative to control conditions", "setting": "[1]; listed as Oxygen", "result": "significant negative effect"}, {"measurement": "overall effect relative to control conditions", "setting": "[1]; listed as hyperbaric oxygen", "result": "no beneficial effect"}, {"measurement": "overall effect relative to control conditions", "setting": "[1]; listed as oxygen", "result": "fared worse than the control group"}, {"measurement": "hypocellular medullary sinuses of lymph nodes", "setting": "[1]", "result": "significantly more hypocellular sinuses"}, {"measurement": "spleen size", "setting": "[1]", "result": "much bigger"}, {"measurement": "lymph node size", "setting": "[1]", "result": "much bigger"}, {"measurement": "post-treatment CD4 count (FACS)", "setting": "[1]; listed as hyperbaric oxygen", "result": "significantly decreased"}]}, {"smiles": "[N-]=[N+]=O", "note": "[nitrous oxide]", "values": [{"measurement": "anesthetic effect", "setting": "[2]; 90% N2O and 10% O2 at atmospheric pressure (760 mmHg)", "result": "many subjects do not even lose consciousness"}, {"measurement": "anesthetic effect", "setting": "[2]; 1520 mmHg or 2 atmospheres absolute (1368 mmHg N2O+125 mmHg oxygen)", "result": "deep anesthesia"}]}]}
